Patent US10961180B2, “Branched trialkyl amine oxides” (Eastman Chemical Company, priority 2018, dated 2021)

Legend:
[1] = Draves Wetting Test (ASTM D2281-68), wet-out time; type: physicochemical; conditions: 0.05 wt % actives in DI water, average of 3
Experimental: The surface wetting ability of the amine oxides with linear and branched hydrophobes from Examples 43 to 45 were compared using the Draves Wetting Test (ASTM D2281-68). A 0.05 wt % (actives basis) solution of amine oxide in deionized (DI) water was used to determine the Draves wet-out time (WOT) in seconds. 0.75 g of surfactant was dispersed in 1,500 ml of DI water. The wet-out time (WOT) in seconds is recorded in Table 7 (average of 3 measurements). LAO is Lauramine oxide (linear hydrophobe), Sigma catalog number 40236.

[2] = Foam height, high shear (Waring blender) in deionized water; type: physicochemical; conditions: for Foam volume (ml) 5 min / Foam volume (ml) Initial: 0.05 wt % in deionized water; for Foam volume (ml) 5 min: after 5 min; for Foam volume (ml) Initial: blended High 30 s
Experimental: The surface foam volume and persistence of the amine oxides with linear and branched hydrophobes from Examples 43 and 44 were compared. A 0.05 wt % (actives basis) solution of the test surfactant was made in deionized water. 250 ml of the test solution was added the beaker of a Waring blender, capped, and then blended on High for 30 seconds and immediately transferred to a 1 L graduated cylinder. The total volume of foam plus liquid, as well as the liquid layer alone was recorded. The foam and liquid volumes were recorded again after 5 minutes.

[3] = Salt thickening: viscosity of SLS/SLES/amine oxide formulation vs NaCl content; type: physicochemical; conditions: 1.4% amine oxide, 4.3% SLS, 4.3% SLES, shear rate 3/s
Experimental: The viscosity (cP; shear rate 3/s) of a simple formulation was measured as the salt concentration varied from 0 to 5 wt %.

[4] = Stain removal in cold water, swatch brightness, simple laundry liquid; conditions: 0.05% active additive, compared to LAO
Experimental: Amine oxides with linear and branched hydrophobes were compared in a screen for stain removal in cold water. Simple laundry liquid formulations were made that included only surfactants and builder.
Standard stain swatches were purchased from Testfabrics, Inc. (West Pittston, Pa.). […] The swatches were pre-cut into 2 inch squares. The test formulation was diluted with DI water to 0.06% total surfactant to make the wash solution. Additives were added at a final concentration of 0.05% active in the wash solution. Stained fabric swatches were added to the wash solution, washed and rinsed at 20° C., and air-dried. The average swatch brightness (L*) for each treatment, and standard deviation, are reported for 3 replicates.

zein protein = tested on: zein protein; parameters: species or system corn; conditions: 1% surfactant solution, 30 C, 30 min, triplicate
Experimental: For the test, 0.0750 g of zein protein is transferred into a 1.5 mL centrifuge tube. To this 1.5 mL of 1% surfactant solution is added, mixed, and placed in a 30 C incubator with mild stirring for 30 minutes. After 30 minutes has elapsed, the tube is centrifuged for 30 min at 3600 rpm. The solution is filtered through a pre-weighed 8 micron filter paper, and then dried overnight in a 50° C. oven. The insoluble zein residue is then weighed and the wt % Zein dissolved is calculated using the equation below. Each solution is analyzed in triplicate. The Zein score is normalized to a standard included in each set of tests, in this case LAE10; (% zein dissolved=(total zein added−total zein after drying÷Total zein added)×100).

[5] = Foaming in diluted commercial laundry liquid (Persil Original), Waring blender; type: physicochemical; conditions: for Difference: initial minus 5 min
Experimental: The surface foam volume and foam persistence of solutions of the amine oxides with linear and branched hydrophobes from Examples 25 and 26 were compared. A commercial laundry liquid was diluted in deionized water according to the dosing instructions; 4.2 ml/L Persil Original. The diluted detergent was supplemented with 0%, 2%, 5% (based on wt laundry liquid) of LAO or Branched C12 AO,(2,4-diethyl-N,N-dimethyloctan-1-amine oxide, Example 66), and the solutions mixed briefly and used immediately. 250 ml of each test solution was added the beaker of a Waring blender, capped, and then blended on High for 30 seconds and immediately transferred to a 1 L graduated cylinder. The total volume of foam plus liquid, as well as the liquid layer alone was recorded. The foam and liquid volumes were recorded again after 5 minutes. All tests were performed in triplicate.

Compound | Wet out time [1] | Foam volume (ml) 5 min [2] | Foam volume (ml) Initial [2] | Viscosity ([3]; NaCl 0.5 wt %) | Viscosity ([3]; NaCl 1.0 wt %) | Zein score - normalized to LAE10 (zein protein) | Difference ([5]; Persil + 2% amine oxide) | Difference ([5]; Persil + 5% amine oxide) | further results
4-ethyl-N,N-2-trimethyloctan-1-amine oxide [Example 43] | >300 s | 0 mL | 267 mL | – | – | – | – | – | % decrease ([2]; foam volume, initial to 5 min): 100%
CCCCC(CC)CC(C)C[N+](C)(C)[O-] (centres unmarked) [Example 43, 4-ethyl-N,N-2-trimethyloctan-1-amine oxide] | – | – | – | 7 cP | 36 cP | – | – | – | Viscosity ([3]; NaCl 4.0 wt %): 670 cP; Foam in the wash solution [4]: very little foam
CCCCC(CC)CC(CC)C[N+](C)(C)[O-] (centres unmarked) [Example 44, 2,4-diethyl-N,N-dimethyloctan-1-amine oxide] | >300 s | 0 mL | 370 mL | – | – | 0.018 | 257 mL | 280 mL | Initial foam volume ([5]; Persil Original 4.2 ml/L + 2% amine oxide (on wt laundry liquid)): 560 mL
CCCCCCCCCCCC[N+](C)(C)[O-] [LAO, N,N-dimethyl laurylamine oxide, reference compound] | 33 s | 500 mL | – | 2 cP | 11 cP | – | 54 mL | 6 mL | –
Alkylpolyglucoside [APG] | – | – | – | – | – | 0.586 | – | – | –
Linear alkylbenzene sulfonate [LABS] | – | – | – | – | – | 4.670 | – | – | –
